Source: the supplement of paper PMC10307832

Legend:
Experiment in all cases: relative viability (nuclei count vs DMSO), 5 days (fraction); higher = more cells survive
[1] = compound: CCN1C(=O)C2=CC(=C(N=C2N(C1=O)C3CC3)N)C(=O)N + CS(=O)(=O)N1CCN(Cc2cc3nc(-c4cccc5[nH]ncc45)nc(N4CCOCC4)c3s2)CC1 [Pictilisib] (partner 1 µM)
Procedure, shortened: (§1)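 Lung cancer cell lines, seeded in 1536-well plates, were treated the following day by pin tool with a single drug or with five library-drug doses (not always all listed) in √10 steps on top of a fixed anchor-drug dose. Cells were fixed and nuclei stained in one step after 5 days, and nuclei were counted. Relative viability is the nuclei count for treated wells divided by that for vehicle wells, reported as medians of duplicate plates.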

[2] = compound: CCN1C(=O)C2=CC(=C(N=C2N(C1=O)C3CC3)N)C(=O)N + CS(=O)(=O)CCNCc1ccc(-c2ccc3ncnc(Nc4ccc(OCc5cccc(F)c5)c(Cl)c4)c3c2)o1 [Lapatinib] (partner 2 µM)
Procedure, shortened: as §1

[3] = compound: CCN1C(=O)C2=CC(=C(N=C2N(C1=O)C3CC3)N)C(=O)N + COc1cc2c(Oc3ccc(NC(=O)C4(C(=O)Nc5ccc(F)cc5)CC4)cc3F)ccnc2cc1OCCCN1CCOCC1 [Foretinib] (partner 0.25 µM)
Procedure, shortened: as §1

[4] = compound: CCN1C(=O)C2=CC(=C(N=C2N(C1=O)C3CC3)N)C(=O)N + CC(C)C[C@H](NC(=O)[C@H](Cc1ccccc1)NC(=O)c1cnccn1)B(O)O [Bortezomib] (partner 0.002 µM)
Procedure, shortened: as §1

[5] = compound: CCN1C(=O)C2=CC(=C(N=C2N(C1=O)C3CC3)N)C(=O)N + C[C@]1(O)C[C@@H](c2nc(-c3ccc4ccc(-c5ccccc5)nc4c3)c3c(N)nccn32)C1 [Linsitinib] (partner 1 µM)
Procedure, shortened: as §1

[6] = compound: CCN1C(=O)C2=CC(=C(N=C2N(C1=O)C3CC3)N)C(=O)N + O=C(c1cc(Cc2n[nH]c(=O)c3ccccc23)ccc1F)N1CCN(C(=O)C2CC2)CC1 [Olaparib] (partner 8 µM)
Procedure, shortened: as §1

[7] = compound: CCN1C(=O)C2=CC(=C(N=C2N(C1=O)C3CC3)N)C(=O)N + CC1(C)CCC(c2ccc(Cl)cc2)=C(CN2CCN(c3ccc(C(=O)NS(=O)(=O)c4ccc(N[C@H](CCN5CCOCC5)CSc5ccccc5)c(S(=O)(=O)C(F)(F)F)c4)cc3)CC2)C1 [Navitoclax] (partner 0.5 µM)
Procedure, shortened: as §1

[8] = compound: CCN1C(=O)C2=CC(=C(N=C2N(C1=O)C3CC3)N)C(=O)N + Cc1nc(NC(=O)N2CCC[C@H]2C(N)=O)sc1-c1ccnc(C(C)(C)C(F)(F)F)c1 [Alpelisib] (partner 2 µM)
Procedure, shortened: as §1

[9] = compound: CCN1C(=O)C2=CC(=C(N=C2N(C1=O)C3CC3)N)C(=O)N + C[C@@H](Oc1cc(-c2cnn(C3CCNCC3)c2)cnc1N)c1c(Cl)ccc(F)c1Cl [Crizotinib] (partner 1 µM)
Procedure, shortened: as §1

[10] = compound: CCN1C(=O)C2=CC(=C(N=C2N(C1=O)C3CC3)N)C(=O)N
Procedure, shortened: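 Five library-drug doses, separated by factors of √10, were pinned into 1536-well plates holding lung cancer cell lines after an overnight stay at 37 °C. Cells were fixed, permeabilised and Hoechst-stained in one step after 5 days without medium change, then imaged at 4×. Viability compares treated-well with vehicle-well nuclei, counted in MetaXpress, as a median across plates. Passing plates had control CV below 25% and at least one doubling.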

[11] = compound: CCN1C(=O)C2=CC(=C(N=C2N(C1=O)C3CC3)N)C(=O)N + CCNC(=O)c1noc(-c2cc(C(C)C)c(O)cc2O)c1-c1ccc(CN2CCOCC2)cc1 [Luminespib] (partner 0.01 µM)
Procedure, shortened: as §1

[12] = compound: CCN1C(=O)C2=CC(=C(N=C2N(C1=O)C3CC3)N)C(=O)N + COc1cccc2cc(-c3nc([C@H]4CC[C@H](C(=O)O)CC4)n4ncnc(N)c34)[nH]c12 [OSI-027] (partner 0.5 µM)
Procedure, shortened: as §1

[13] = compound: CCN1C(=O)C2=CC(=C(N=C2N(C1=O)C3CC3)N)C(=O)N + Cc1nc(Nc2ncc(C(=O)Nc3c(C)cccc3Cl)s2)cc(N2CCN(CCO)CC2)n1 [Dasatinib] (partner 0.075 µM)
Procedure, shortened: as §1

[14] = compound: CCN1C(=O)C2=CC(=C(N=C2N(C1=O)C3CC3)N)C(=O)N + N=C(N)NC(=N)NCCc1ccccc1 [Phenformin] (partner 250 µM)
Procedure, shortened: as §1

[15] = compound: CCN1C(=O)C2=CC(=C(N=C2N(C1=O)C3CC3)N)C(=O)N + Cc1cc(Nc2cc(N3CCN(C)CC3)nc(Sc3ccc(NC(=O)C4CC4)cc3)n2)n[nH]1 [Tozasertib] (partner 0.1 µM)
Procedure, shortened: as §1

## NCI-H1299
[1]; first compound 0.253 µM
  relative viability: 0.879
[1]; first compound 0.8 µM
  relative viability: 0.81
[1]; first compound 2.53 µM
  relative viability: 0.701
[1]; first compound 8 µM
  relative viability: 0.962
[2]; first compound 0.253 µM
  relative viability: 1.06
[2]; first compound 0.8 µM
  relative viability: 0.978
[2]; first compound 2.53 µM
  relative viability: 0.933
[2]; first compound 8 µM
  relative viability: 0.947
[3]; first compound 0.253 µM
  relative viability: 1.16
[3]; first compound 0.8 µM
  relative viability: 1.1
[3]; first compound 2.53 µM
  relative viability: 1.08
[3]; first compound 8 µM
  relative viability: 1.05
[4]; first compound 0.253 µM
  relative viability: 1.01
[4]; first compound 0.8 µM
  relative viability: 1.01
[4]; first compound 2.53 µM
  relative viability: 1
[4]; first compound 8 µM
  relative viability: 0.999
[5]; first compound 0.253 µM
  relative viability: 0.991
[5]; first compound 0.8 µM
  relative viability: 0.98
[5]; first compound 2.53 µM
  relative viability: 0.93
[5]; first compound 8 µM
  relative viability: 0.982
[6]; first compound 0.253 µM
  relative viability: 0.922
[6]; first compound 0.8 µM
  relative viability: 0.956
[6]; first compound 2.53 µM
  relative viability: 0.918
[6]; first compound 8 µM
  relative viability: 0.942
[7]; first compound 0.253 µM
  relative viability: 1.07
[7]; first compound 0.8 µM
  relative viability: 1.06
[7]; first compound 2.53 µM
  relative viability: 1.04
[7]; first compound 8 µM
  relative viability: 1.01
[8]; first compound 0.253 µM
  relative viability: 1.01
[8]; first compound 0.8 µM
  relative viability: 1.15
[8]; first compound 2.53 µM
  relative viability: 1.05
[8]; first compound 8 µM
  relative viability: 1.08
[9]; first compound 0.253 µM
  relative viability: 1
[9]; first compound 0.8 µM
  relative viability: 0.914
[9]; first compound 2.53 µM
  relative viability: 0.924
[9]; first compound 8 µM
  relative viability: 0.966
[10]; 0.253 µM
  relative viability: 1.02
[10]; 0.8 µM
  relative viability: 1.02
[10]; 2.53 µM
  relative viability: 0.986
[10]; 8 µM
  relative viability: 0.976

## Calu-6
[1]; first compound 0.253 µM
  relative viability: 0.925
[1]; first compound 0.8 µM
  relative viability: 0.819
[1]; first compound 2.53 µM
  relative viability: 0.923
[1]; first compound 8 µM
  relative viability: 1
[2]; first compound 0.253 µM
  relative viability: 1.06
[2]; first compound 0.8 µM
  relative viability: 1.05
[2]; first compound 2.53 µM
  relative viability: 0.957
[2]; first compound 8 µM
  relative viability: 0.997
[3]; first compound 0.253 µM
  relative viability: 0.892
[3]; first compound 0.8 µM
  relative viability: 0.809
[3]; first compound 2.53 µM
  relative viability: 0.845
[3]; first compound 8 µM
  relative viability: 0.803
[4]; first compound 0.253 µM
  relative viability: 1
[4]; first compound 0.8 µM
  relative viability: 0.954
[4]; first compound 2.53 µM
  relative viability: 1.02
[4]; first compound 8 µM
  relative viability: 0.958
[5]; first compound 0.253 µM
  relative viability: 0.924
[5]; first compound 0.8 µM
  relative viability: 0.946
[5]; first compound 2.53 µM
  relative viability: 0.869
[5]; first compound 8 µM
  relative viability: 0.866
[6]; first compound 0.253 µM
  relative viability: 0.554
[6]; first compound 0.8 µM
  relative viability: 0.573
[6]; first compound 2.53 µM
  relative viability: 0.582
[6]; first compound 8 µM
  relative viability: 0.566
[7]; first compound 0.253 µM
  relative viability: 0.828
[7]; first compound 0.8 µM
  relative viability: 0.822
[7]; first compound 2.53 µM
  relative viability: 0.826
[7]; first compound 8 µM
  relative viability: 0.883
[8]; first compound 0.253 µM
  relative viability: 1.03
[8]; first compound 0.8 µM
  relative viability: 0.876
[8]; first compound 2.53 µM
  relative viability: 0.866
[8]; first compound 8 µM
  relative viability: 0.925
[9]; first compound 0.253 µM
  relative viability: 0.808
[9]; first compound 0.8 µM
  relative viability: 0.81
[9]; first compound 2.53 µM
  relative viability: 0.721
[9]; first compound 8 µM
  relative viability: 0.805
[10]; 0.253 µM
  relative viability: 0.963
[10]; 0.8 µM
  relative viability: 1.01
[10]; 2.53 µM
  relative viability: 0.902
[10]; 8 µM
  relative viability: 0.905

## NCI-H1623
[11]; first compound 0.253 µM
  relative viability: 0.454
[11]; first compound 0.8 µM
  relative viability: 0.452
[11]; first compound 2.53 µM
  relative viability: 0.546
[11]; first compound 8 µM
  relative viability: 0.473
[12]; first compound 0.253 µM
  relative viability: 0.439
[12]; first compound 0.8 µM
  relative viability: 0.428
[12]; first compound 2.53 µM
  relative viability: 0.455
[12]; first compound 8 µM
  relative viability: 0.446
[13]; first compound 0.253 µM
  relative viability: 0.518
[13]; first compound 0.8 µM
  relative viability: 0.589
[13]; first compound 2.53 µM
  relative viability: 0.627
[13]; first compound 8 µM
  relative viability: 0.595
[3]; first compound 0.253 µM
  relative viability: 0.856
[3]; first compound 0.8 µM
  relative viability: 0.862
[3]; first compound 2.53 µM
  relative viability: 0.94
[3]; first compound 8 µM
  relative viability: 0.939
[14]; first compound 0.253 µM
  relative viability: 0.514
[14]; first compound 0.8 µM
  relative viability: 0.59
[14]; first compound 2.53 µM
  relative viability: 0.63
[14]; first compound 8 µM
  relative viability: 0.567
[15]; first compound 0.253 µM
  relative viability: 0.405
[15]; first compound 0.8 µM
  relative viability: 0.442
[15]; first compound 2.53 µM
  relative viability: 0.438
[15]; first compound 8 µM
  relative viability: 0.48
[10]; 0.253 µM
  relative viability: 0.922
[10]; 0.8 µM
  relative viability: 0.992
[10]; 2.53 µM
  relative viability: 1.02
[10]; 8 µM
  relative viability: 1.13
